Laboratory results from PMC5477026 (Chemical Science, 2016).

Molecular target: T1, MexG (Pseudomonas aeruginosa, UniProt Q9HWH6)
T1 sequence (Q9HWH6 1-148): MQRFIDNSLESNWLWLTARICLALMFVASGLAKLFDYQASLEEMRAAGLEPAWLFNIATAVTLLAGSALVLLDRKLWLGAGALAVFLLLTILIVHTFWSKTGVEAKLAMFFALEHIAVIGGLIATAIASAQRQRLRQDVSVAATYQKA
Assay: intrinsic Trp fluorescence quenching titration
Assay type: binding

## CCCCCCCc1[nH]c2ccccc2c(=O)c1O [PQS, 2-heptyl-3-hydroxy-4(1H)-quinolone]
  Kd: 1000 nM
